According to patent US20250304644A1, “PEPTIDES TRIPLE AGONISTS OF GIP, GLP-1 AND GLP-2” (BAINAN BIOTECH APS, priority 2021, published 2025):
Where a SMILES comes first, the peptide text is derived from it. [ ]: non-standard residue; d: D form. The star is where a group is joined. Decanoyl = CCCCCCCCCC(=O)*; Aib = CC(C)(N)C(=O)O

How the values were obtained:
Type in all cases: cell-based
human GLP-1R = target: T1, human GLP-1R (Homo sapiens, UniProt P43220); test: cAMP assay (HitHunter) in transiently transfected COS-7 cells expressing human GLP-1R; conditions: for Emax: COS-7, normalized to highest concentration of the endogenous ligand, read-out: Efficacy GLP-1R (Emax)
T1 construct: host or cells: COS-7
T1 sequence (P43220 24-463): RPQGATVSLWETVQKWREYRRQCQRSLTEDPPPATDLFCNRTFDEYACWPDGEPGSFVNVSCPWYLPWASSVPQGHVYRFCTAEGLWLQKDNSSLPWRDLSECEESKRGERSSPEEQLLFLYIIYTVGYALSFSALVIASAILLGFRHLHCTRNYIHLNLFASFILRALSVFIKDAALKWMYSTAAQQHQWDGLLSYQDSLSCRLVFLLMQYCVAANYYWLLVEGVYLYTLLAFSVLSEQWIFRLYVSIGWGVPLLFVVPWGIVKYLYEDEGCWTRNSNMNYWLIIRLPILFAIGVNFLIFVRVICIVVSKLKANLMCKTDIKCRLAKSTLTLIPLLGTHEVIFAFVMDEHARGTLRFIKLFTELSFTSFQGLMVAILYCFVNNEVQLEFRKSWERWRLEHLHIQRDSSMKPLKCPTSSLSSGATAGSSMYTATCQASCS
Description: (§1) The next day the assay was initiated by washing with HEPES buffered saline (HBS) and followed by an incubation step with assay buffer (HBS added 1 mM isobutyl-1-methylxanthine (IBMX)) for 30 min at 37° C. The ligands were then added and incubated for an additional 30 min at 37° C. After ligand incubation, the HitHunter® CAMP assay (Eurofins DiscoverX, Fremont, […] USA) was carried out according to the manufacturer's instructions. […] The potencies (EC50 values) were determined by nonlinear regression using GraphPad Prism 9 (San Diego, California, USA). Sigmoid curves were fitted logistically. The efficacies (Emax values) were determined by normalization to the highest concentration applied of the endogenous ligand for each receptor.

human GIPR = target: T2, human GIPR (Homo sapiens, UniProt P48546); test: cAMP assay (HitHunter) in transiently transfected COS-7 cells expressing human GIPR; conditions: for Emax: COS-7, normalized to highest concentration of the endogenous ligand, read-out: Efficacy GIPR (Emax); for EC50: cAMP, COS-7 cells, human GIPR
T2 construct: host or cells: COS-7
T2 sequence (P48546 22-466): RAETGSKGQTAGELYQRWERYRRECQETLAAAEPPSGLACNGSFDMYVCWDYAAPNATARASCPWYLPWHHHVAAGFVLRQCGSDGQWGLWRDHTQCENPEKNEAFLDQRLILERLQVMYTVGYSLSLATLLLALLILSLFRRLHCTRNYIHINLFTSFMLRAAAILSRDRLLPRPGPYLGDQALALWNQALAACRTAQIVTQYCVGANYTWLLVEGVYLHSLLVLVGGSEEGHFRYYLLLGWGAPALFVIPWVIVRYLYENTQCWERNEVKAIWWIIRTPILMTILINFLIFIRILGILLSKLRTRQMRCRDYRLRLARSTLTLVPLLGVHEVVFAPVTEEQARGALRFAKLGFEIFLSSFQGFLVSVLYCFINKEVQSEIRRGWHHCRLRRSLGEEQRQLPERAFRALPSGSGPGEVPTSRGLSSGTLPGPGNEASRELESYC
Description: as §1

human GLP-2R = target: T3, human GLP-2R (Homo sapiens, UniProt O95838); test: cAMP assay (HitHunter) in transiently transfected COS-7 cells expressing human GLP-2R; conditions: for Emax: COS-7, normalized to highest concentration of the endogenous ligand, read-out: Efficacy GLP-2R (Emax)
T3 construct: host or cells: COS-7
T3 sequence (O95838 1-553): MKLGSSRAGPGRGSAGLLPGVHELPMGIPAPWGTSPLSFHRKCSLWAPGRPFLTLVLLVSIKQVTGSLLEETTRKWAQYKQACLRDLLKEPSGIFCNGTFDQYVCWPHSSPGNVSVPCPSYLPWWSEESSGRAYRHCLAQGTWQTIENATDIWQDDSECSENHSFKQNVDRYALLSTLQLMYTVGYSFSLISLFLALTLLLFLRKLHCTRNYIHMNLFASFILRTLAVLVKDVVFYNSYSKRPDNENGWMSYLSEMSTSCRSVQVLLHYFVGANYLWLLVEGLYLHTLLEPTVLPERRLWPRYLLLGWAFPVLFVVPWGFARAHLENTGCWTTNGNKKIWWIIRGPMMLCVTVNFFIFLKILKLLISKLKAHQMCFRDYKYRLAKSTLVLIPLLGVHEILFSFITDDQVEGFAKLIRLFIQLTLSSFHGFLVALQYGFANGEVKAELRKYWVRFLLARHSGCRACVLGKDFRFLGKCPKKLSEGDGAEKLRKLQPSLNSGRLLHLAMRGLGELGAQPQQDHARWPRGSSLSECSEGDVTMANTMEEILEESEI
Description: as §1

SMILES	Emax (human GLP-1R) [%]	Emax (human GIPR) [%]	Emax (human GLP-2R) [%]	EC50 (human GLP-2R; cAMP, COS-7 cells, human GLP-2R, read-out: EC50 (nM) GLP-2R) [nM]	EC50 (human GLP-1R; cAMP, COS-7 cells, human GLP-1R, read-out: EC50 (nM) GLP-1R) [nM]	EC50 (human GIPR) [nM]
CCCCCCCCCC(=O)NCCCC[C@H](NC(=O)[C@@H](NC(=O)[C@@H](NC(=O)[C@H](CCCCN)NC(=O)[C@@H](NC(=O)[C@H](CCC(N)=O)NC(=O)[C@@H](NC(=O)[C@H](CC(C)C)NC(=O)[C@H](Cc1c[nH]c2ccccc12)NC(=O)[C@H](CC(N)=O)NC(=O)[C@@H](NC(=O)[C@H](Cc1ccccc1)NC(=O)[C@H](CC(=O)O)NC(=O)[C@H](CCCNC(=N)N)NC(=O)[C@H](C)NC(=O)[C@H](C)NC(=O)[C@H](CC(C)C)NC(=O)[C@H](CC(N)=O)NC(=O)[C@H](CC(=O)O)NC(=O)[C@H](CC(C)C)NC(=O)[C@@H](NC(=O)[C@@H](NC(=O)[C@H](CO)NC(=O)[C@H](Cc1ccc(O)cc1)NC(=O)[C@H](CC(=O)O)NC(=O)[C@H](CO)NC(=O)[C@@H](NC(=O)[C@H](Cc1ccccc1)NC(=O)[C@@H](NC(=O)CNC(=O)[C@H](CCC(=O)O)NC(=O)C(C)(C)NC(=O)[C@@H](N)Cc1c[nH]cn1)[C@@H](C)O)[C@@H](C)CC)[C@@H](C)O)[C@@H](C)CC)[C@@H](C)CC)[C@@H](C)CC)[C@@H](C)O)[C@@H](C)CC)[C@@H](C)O)C(N)=O [Compound 11] (H-H[Aib]EGTFISDYSTILDNLAARDFINWLIQTKITK(Decanoyl)-NH2)	76	89	68	25.1		
CCCCCCCCCC(=O)NCCCC[C@H](NC(=O)[C@@H](NC(=O)[C@@H](NC(=O)[C@H](CCCCN)NC(=O)[C@@H](NC(=O)[C@H](CCC(N)=O)NC(=O)[C@@H](NC(=O)[C@H](CC(C)C)NC(=O)[C@H](Cc1c[nH]c2ccccc12)NC(=O)[C@H](CC(N)=O)NC(=O)[C@@H](NC(=O)[C@H](Cc1ccccc1)NC(=O)[C@H](CC(=O)O)NC(=O)[C@H](CCCNC(=N)N)NC(=O)[C@H](C)NC(=O)[C@H](C)NC(=O)[C@H](CC(C)C)NC(=O)[C@H](CC(C)C)NC(=O)[C@H](CC(=O)O)NC(=O)[C@H](CC(C)C)NC(=O)[C@@H](NC(=O)[C@@H](NC(=O)[C@H](CO)NC(=O)[C@H](Cc1ccc(O)cc1)NC(=O)[C@H](CC(=O)O)NC(=O)[C@H](CO)NC(=O)[C@@H](NC(=O)[C@H](Cc1ccccc1)NC(=O)[C@@H](NC(=O)CNC(=O)[C@H](CC(=O)O)NC(=O)C(C)(C)NC(=O)[C@@H](N)Cc1c[nH]cn1)[C@@H](C)O)[C@@H](C)CC)[C@@H](C)O)[C@@H](C)CC)[C@@H](C)CC)[C@@H](C)CC)[C@@H](C)O)[C@@H](C)CC)[C@@H](C)O)C(N)=O [Compound 4] (H-H[Aib]DGTFISDYSTILDLLAARDFINWLIQTKITK(Decanoyl)-NH2)	82	102	92		25.1	1.12
CCCCCCCCCC(=O)NCCCC[C@H](NC(=O)[C@@H](NC(=O)[C@@H](NC(=O)[C@H](CCCCN)NC(=O)[C@@H](NC(=O)[C@H](CCC(N)=O)NC(=O)[C@@H](NC(=O)[C@H](CC(C)C)NC(=O)[C@H](Cc1c[nH]c2ccccc12)NC(=O)[C@H](CC(N)=O)NC(=O)[C@@H](NC(=O)[C@H](Cc1ccccc1)NC(=O)[C@H](CCC(=O)O)NC(=O)[C@H](CCCNC(=N)N)NC(=O)[C@H](C)NC(=O)[C@H](C)NC(=O)[C@H](CC(C)C)NC(=O)[C@H](CC(N)=O)NC(=O)[C@H](CC(=O)O)NC(=O)[C@H](CC(C)C)NC(=O)[C@@H](NC(=O)[C@@H](NC(=O)[C@H](CO)NC(=O)[C@H](Cc1ccc(O)cc1)NC(=O)[C@H](CC(=O)O)NC(=O)[C@H](CO)NC(=O)[C@@H](NC(=O)[C@H](Cc1ccccc1)NC(=O)[C@@H](NC(=O)CNC(=O)[C@H](CC(=O)O)NC(=O)C(C)(C)NC(=O)[C@@H](N)Cc1c[nH]cn1)[C@@H](C)O)[C@@H](C)CC)[C@@H](C)O)[C@@H](C)CC)[C@@H](C)CC)[C@@H](C)CC)[C@@H](C)O)[C@@H](C)CC)[C@@H](C)O)C(N)=O [Compound 8] (H-H[Aib]DGTFISDYSTILDNLAAREFINWLIQTKITK(Decanoyl)-NH2; N-terminus assumed)	98	99				1.12
